The values that follow are results of earlier work, collected in patent publication US8492403B2, “Bicyclic derivatives as modulators of voltage gated ion channels” (Vertex Pharmaceuticals Incorporated, priority 2005, dated 2013).

As a reminder, the IC50 is the concentration needed to halve the response being measured.

For data set [1] the following is noted: neuropathic pain; cited from earlier work.
The next data set addresses NaV 1.3 (Homo sapiens, UniProt Q9NY46). As to conditions: read-out: TTX IC50; cited from earlier work.
The target in the next data set is NaV 1.8 (Homo sapiens, UniProt Q9Y5Y9). To be noted: read-out: TTX IC50; cited from earlier work.
Sequence of NaV 1.8 (Q9Y5Y9 whole entry, looked up): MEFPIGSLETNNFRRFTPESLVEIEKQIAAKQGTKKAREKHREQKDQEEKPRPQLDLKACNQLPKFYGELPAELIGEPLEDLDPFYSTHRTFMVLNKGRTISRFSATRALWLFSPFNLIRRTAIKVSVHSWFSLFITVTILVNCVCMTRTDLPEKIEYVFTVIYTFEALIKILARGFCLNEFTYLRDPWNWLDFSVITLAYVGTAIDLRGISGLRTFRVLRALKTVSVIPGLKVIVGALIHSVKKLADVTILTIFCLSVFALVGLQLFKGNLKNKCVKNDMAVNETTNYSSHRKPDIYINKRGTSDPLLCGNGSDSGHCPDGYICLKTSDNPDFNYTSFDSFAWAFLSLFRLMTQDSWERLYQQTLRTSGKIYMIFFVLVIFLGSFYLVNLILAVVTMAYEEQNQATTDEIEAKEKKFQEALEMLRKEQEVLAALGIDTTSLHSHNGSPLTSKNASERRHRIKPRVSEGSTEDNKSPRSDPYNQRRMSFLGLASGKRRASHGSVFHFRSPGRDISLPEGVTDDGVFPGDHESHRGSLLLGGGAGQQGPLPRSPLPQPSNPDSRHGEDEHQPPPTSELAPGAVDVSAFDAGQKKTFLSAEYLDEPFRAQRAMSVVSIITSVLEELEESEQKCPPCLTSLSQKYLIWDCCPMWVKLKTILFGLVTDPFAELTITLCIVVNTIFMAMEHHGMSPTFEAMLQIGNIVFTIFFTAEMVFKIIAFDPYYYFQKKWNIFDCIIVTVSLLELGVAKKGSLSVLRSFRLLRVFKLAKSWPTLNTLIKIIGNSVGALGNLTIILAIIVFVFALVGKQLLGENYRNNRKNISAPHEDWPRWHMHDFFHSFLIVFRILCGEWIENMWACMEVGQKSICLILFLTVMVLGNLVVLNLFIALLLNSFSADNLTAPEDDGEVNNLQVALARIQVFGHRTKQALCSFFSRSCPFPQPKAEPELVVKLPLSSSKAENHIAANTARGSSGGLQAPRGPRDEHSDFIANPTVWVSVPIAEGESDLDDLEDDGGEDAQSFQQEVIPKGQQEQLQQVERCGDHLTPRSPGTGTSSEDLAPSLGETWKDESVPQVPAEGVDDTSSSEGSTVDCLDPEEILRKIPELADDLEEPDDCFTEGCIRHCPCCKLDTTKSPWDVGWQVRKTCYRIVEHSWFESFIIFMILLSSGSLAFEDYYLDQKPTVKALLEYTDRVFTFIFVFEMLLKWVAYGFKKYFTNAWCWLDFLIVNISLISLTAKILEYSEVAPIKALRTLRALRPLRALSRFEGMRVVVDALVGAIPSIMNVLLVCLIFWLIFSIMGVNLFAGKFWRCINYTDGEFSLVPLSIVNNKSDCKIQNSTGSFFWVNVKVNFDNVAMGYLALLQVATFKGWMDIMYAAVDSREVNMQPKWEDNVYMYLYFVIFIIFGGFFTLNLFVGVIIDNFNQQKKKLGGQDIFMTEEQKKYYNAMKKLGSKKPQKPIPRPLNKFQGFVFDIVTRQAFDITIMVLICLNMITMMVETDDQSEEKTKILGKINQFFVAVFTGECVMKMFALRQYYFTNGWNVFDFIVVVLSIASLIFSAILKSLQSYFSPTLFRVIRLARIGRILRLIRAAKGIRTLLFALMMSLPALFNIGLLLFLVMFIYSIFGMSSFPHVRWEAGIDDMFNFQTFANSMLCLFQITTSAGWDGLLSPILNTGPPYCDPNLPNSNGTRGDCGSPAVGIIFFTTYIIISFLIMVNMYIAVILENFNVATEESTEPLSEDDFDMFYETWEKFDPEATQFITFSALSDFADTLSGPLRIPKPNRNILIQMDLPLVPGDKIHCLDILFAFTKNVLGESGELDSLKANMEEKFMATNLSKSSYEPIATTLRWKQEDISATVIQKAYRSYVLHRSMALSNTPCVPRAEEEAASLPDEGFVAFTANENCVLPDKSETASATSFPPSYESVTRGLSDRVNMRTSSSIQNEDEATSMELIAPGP

Sequence of NaV 1.3 (Q9NY46 whole entry, looked up): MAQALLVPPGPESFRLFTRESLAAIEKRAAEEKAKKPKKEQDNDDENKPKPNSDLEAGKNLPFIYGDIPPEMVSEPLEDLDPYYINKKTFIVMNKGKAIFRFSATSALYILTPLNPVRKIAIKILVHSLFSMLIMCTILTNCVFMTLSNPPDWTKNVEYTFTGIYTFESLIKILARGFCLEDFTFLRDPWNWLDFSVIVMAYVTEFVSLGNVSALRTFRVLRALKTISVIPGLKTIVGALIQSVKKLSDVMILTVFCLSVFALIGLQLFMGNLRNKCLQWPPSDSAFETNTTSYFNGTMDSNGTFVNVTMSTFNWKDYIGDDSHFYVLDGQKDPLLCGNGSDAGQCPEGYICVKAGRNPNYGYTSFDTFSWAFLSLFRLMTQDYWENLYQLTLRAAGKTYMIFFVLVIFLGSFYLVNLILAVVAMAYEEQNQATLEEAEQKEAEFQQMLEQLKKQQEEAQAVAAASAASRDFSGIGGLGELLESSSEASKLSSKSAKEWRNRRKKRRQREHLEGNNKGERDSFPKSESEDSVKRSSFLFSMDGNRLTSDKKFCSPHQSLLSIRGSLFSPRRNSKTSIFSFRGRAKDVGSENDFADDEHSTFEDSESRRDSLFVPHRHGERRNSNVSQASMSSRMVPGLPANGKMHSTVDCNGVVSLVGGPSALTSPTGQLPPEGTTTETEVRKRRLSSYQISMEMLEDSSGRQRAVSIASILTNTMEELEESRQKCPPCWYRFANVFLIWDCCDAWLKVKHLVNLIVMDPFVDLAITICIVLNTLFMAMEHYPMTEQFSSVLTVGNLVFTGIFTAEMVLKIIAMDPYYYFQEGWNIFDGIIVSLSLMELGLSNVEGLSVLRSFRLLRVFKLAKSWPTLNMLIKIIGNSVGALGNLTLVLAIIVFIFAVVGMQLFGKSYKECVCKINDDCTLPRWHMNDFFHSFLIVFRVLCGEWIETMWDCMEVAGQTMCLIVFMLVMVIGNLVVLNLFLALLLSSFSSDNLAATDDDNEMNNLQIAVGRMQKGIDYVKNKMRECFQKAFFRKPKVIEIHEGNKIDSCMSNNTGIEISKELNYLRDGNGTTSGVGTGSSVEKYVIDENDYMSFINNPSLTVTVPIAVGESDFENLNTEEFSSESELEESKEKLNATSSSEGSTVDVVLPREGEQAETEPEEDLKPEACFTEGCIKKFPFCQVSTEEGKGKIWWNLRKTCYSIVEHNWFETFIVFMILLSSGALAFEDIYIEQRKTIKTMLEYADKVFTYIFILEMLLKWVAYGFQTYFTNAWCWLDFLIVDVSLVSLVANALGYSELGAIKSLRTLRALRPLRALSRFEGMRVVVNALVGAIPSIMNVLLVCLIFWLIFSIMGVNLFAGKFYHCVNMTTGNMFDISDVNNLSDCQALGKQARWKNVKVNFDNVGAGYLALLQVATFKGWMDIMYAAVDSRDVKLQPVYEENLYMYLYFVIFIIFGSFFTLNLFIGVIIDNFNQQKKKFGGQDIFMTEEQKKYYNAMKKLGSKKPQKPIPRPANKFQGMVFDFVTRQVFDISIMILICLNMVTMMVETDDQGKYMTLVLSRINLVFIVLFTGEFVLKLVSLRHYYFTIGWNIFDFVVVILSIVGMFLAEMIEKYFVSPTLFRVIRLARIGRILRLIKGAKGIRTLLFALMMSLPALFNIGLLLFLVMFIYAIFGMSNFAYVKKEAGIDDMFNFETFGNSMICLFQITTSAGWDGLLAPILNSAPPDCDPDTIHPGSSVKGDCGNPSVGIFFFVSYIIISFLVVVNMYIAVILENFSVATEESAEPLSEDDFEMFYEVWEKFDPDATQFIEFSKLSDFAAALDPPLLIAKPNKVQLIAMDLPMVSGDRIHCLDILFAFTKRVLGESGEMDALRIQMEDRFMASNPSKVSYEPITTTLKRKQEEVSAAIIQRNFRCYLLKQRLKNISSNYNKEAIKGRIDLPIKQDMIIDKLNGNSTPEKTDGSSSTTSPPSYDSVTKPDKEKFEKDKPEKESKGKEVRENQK

Consider `NCC1(CC(=O)O)CCCCC1` [Gabapentin], for which the “share of patients in which it works” value in data set [1] is 60%.
With `NC1=N[C@H](O)[C@H]2[C@H]3O[C@]4(O)O[C@@H]([C@@H](O)[C@@]2(N1)[C@@H]4O)[C@]3(O)CO` [TTX, tetrodotoxin], the IC50 at NaV 1.3 was 15 nM; at NaV 1.8, > 50000 nM.
